Test results taken from patent publication US20230277553A1, “THERAPEUTIC COMPOSITION OF CURE-PRO COMPOUNDS FOR TARGETED DEGRADATION OF BET DOMAIN PROTEINS, AND METHODS OF MAKING AND USAGE” (CORNELL UNIVERSITY, priority 2020, published 2023).
Entries after “also recorded” stand apart in the source; their conditions may differ. Each block holds one molecule with its values, some of them ahead of it. Residues, ends and D or L forms follow the SMILES beside them. *: point of attachment. Cbz = O=C(OCc1ccccc1)*

Columns and labels:
Format in all cases: cell-based
[1] = tested on: MV-4-11 cells; experiment: CellTiter-Glo cell viability, MV-4-11 cells; conditions: for Loss of cellular viability / toxicity, cotreated with cereblon ligands 8046, 8047 and 8066 vs monomers alone: MV-4-11, 72 hours, 1:1, 10 nM-100 μM each
Experimental: CellTiter-Glo® 2.0 Cell Viability Assay (Promega) was carried out following the manufacturer's recommendations. Cells were seeded at a density of 1000 cells/well in a white 96 well plates (Corning, #3917) in a total volume of 100 μl with respective monomers, combinations of BRD ligands together with E3 ligase ligands or vehicle control treatment. After a 72 h incubation, 100 ul of the CellTiter-Glo® substrate was added per well and luminescence was read on a Spectramax M5 (Molecular Devices). Dose-response curves were generated using Graphpad Prism software.
MV-4-11 cells (5×104) were treated for 24 hours with the sample compounds solubilized in DMSO. The compounds were added at 1 nM-100 μM each. Cellular viability was determined using the CellTiter-Glo® Luminescent Cell Viability Assay (Promega) described above. FIGS. 19-22 depict the CURE-PRO-mediated loss of cellular viability for BRD monomers (JQ1 derivatives comprising of catechol linkers), and CRBN ligand, 8049 (pomalidomide derivatives comprising boronic acid linkers) combined in a 1:1 ratio.
MV-4-11 cells (1×104) were treated for 72 hours with the compounds solubilized in DMSO. Compounds were added at 10 nM-100 μM each. Cellular viability was determined using the CellTiter-Glo® Luminescent Cell Viability Assay (Promega) described above. FIGS. 47-54 depict the CURE-PRO-mediated loss of cellular viability for BRD monomers (JQ1 derivatives comprising of boronic acid linkers), and CRBN ligands, 8046, 8047 and 8066 (pomalidomide derivatives comprising diol linkers) combined in a 1:1 ratio.

[2] = biological target: T1, BRD4 (Homo sapiens, UniProt O60885); experiment: Summary of BRD4 degradation by CURE-PRO pairs, estimated from Western Blot or WES (Proteinsimple); parameters: endogenous in cells; conditions: for Degradation of BRD4 in combination with CRBN ligand [drawing 370]: aromatic 1,2-diol- or hindered cis-1,2-diol-containing CRBN ligand, first drawing (8046)
Text: A black check mark indicates efficacy of 30% to 70% or higher protein degradation.

[3] = biological target: T1, BRD4; experiment: CURE-PRO-mediated BRD4 degradation, Western blot, HeLa cells; parameters: endogenous in cells; host or cells: HeLa; conditions: 24 h, Western blot; for BRD4 degradation, co-treatment with CRBN ligand 8046: 1:1 with 8046, 10 μM each
Method in brief: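 HeLa cells treated 24 h with compounds in DMSO (1-10 μM, 10 μM or 100 μM each; paired monomers combined 1:1), optional 15-min pretreatment with pomalidomide, VHL298, Nutlin3a (10 μM) or MG-132/carfilzomib (1 μM). RIPA lysates, 10-20 μg protein immunoblotted for BRD4 with β-actin, ECL detection.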

[4] = biological target: T1, BRD4; experiment: CURE-PRO-mediated BRD4 degradation with VHL ligands, WES (ProteinSimple), MCF7 cells; parameters: endogenous in cells; conditions: for Inhibition of BRD-E2 + 8305 mediated BRD4 degradation by proteasome inhibitor / Inhibition of BRD-E20 + 8305 mediated BRD4 degradation by proteasome inhibitor: MCF7, monomers 10 μM each, inhibitor 1 μM pre-incubation
Experimental: (§1) All cell lines were purchased from ATCC or DSMZ and grown at 37° C. with 5% CO2. Human HeLa cells were cultured in complete growth medium (Dulbecco's modified Eagle's medium (DMEM) supplemented with 10% FBS); MCF7 cells were cultured in complete growth medium (Dulbecco's modified Eagle's medium (DMEM) supplemented with 10% FBS and 0.01 mg/ml human recombinant insulin (Sigma Aldrich); Namalwa and MOLM-13 cells were cultured in complete growth medium (RPMI 1640 medium supplemented with 10% FBS); MV-4-11 were cultured in complete growth medium (Iscove's Modified Dulbecco's medium, supplemented with 10% FBS); HCT116 cells were cultured in complete growth medium (McCoy's 5a Medium supplemented with 10% FBS). For cellular degradation of BRD4 studies, cells were seeded in a 12-well plate at 70-80% confluency, allowed to attach overnight, and incubated with the indicated compounds for the indicated time. When indicated, a 15-minute pretreatment with 10 μM pomalidomide, 10 μM VHL298, 10 μM Nutlin3a, 1 μM MG-132 or 1 μM Carfilzomib was performed before the addition of CURE-PROs. For washout studies, after CURE-PRO treatment, media was aspirated and incubated with complete medium for the indicated time before lysis.
(§2) WES Simple analysis was performed on WES system (ProteinSimple-Biotechne) according to the manufacturer's instructions. Total protein concentrations of cell lysates were determined by the Pierce BCA kit (Thermo Fisher). 3 μL of 0.3 μg/μL of the protein lysate was loaded onto a 12- to 230-kDa WES assay plate (ProteinSimple) where 300 nL sample was withdrawn through a capillary, subjected to electrophoretic separation of proteins by size, and followed by the simultaneous, HRP-based detection of proteins using the Anti-Rabbit Detection Module (Proteinsimple: #DM-001). The electropherograms were checked then the automatic peak detection was manually corrected if it was required.
MCF7 cells (3×10^6) were treated for 4-24 hours continually (FIG. 72), or treated for 4h, washed and incubated for a further 4-24 h with the compounds solubilized in DMSO. Compounds were added at 10 μM each. Cells were washed, lysed, and clarified by centrifugation. The total protein concentration was quantified by the BCA method (ThermoFisher Sciences). Standardized protein samples were electrophoresed and imaged as described in the WES Proteinsimple section above. FIG. 69 depicts the CURE-PRO-mediated BRD4 degradation for the BRD-E50 monomer, and VHL ligand, 8305.
(§3) MCF7 cells (3×10^6) were treated for 24 hours with the compounds solubilized in DMSO. CURE-PRO monomers were added at 10 μM each and the proteasomal inhibitors at 1 μM. Standardized protein samples were electrophoresed and imaged as described in the WES Proteinsimple section above. FIGS. 73 and 75 depicts the dependence of the proteasome for CURE-PRO-mediated BRD4 degradation.
MCF7 cells (3×10^6) were treated for 24 hours with the compounds solubilized in DMSO. CURE-PRO monomers were added at 10 μM. FIG. 74 depicts the CURE-PRO-mediated BRD4 degradation for the BRD-E50 monomer, and VHL ligand, 8305 combined in a 1:1 ratio after 24 h.

[5] = biological target: T1, BRD4; experiment: CURE-PRO-mediated BRD4 degradation with MDM2 ligands, WES (ProteinSimple), HCT116 cells; parameters: endogenous in cells; conditions: HCT116, monomers 10 μM each, inhibitor 1 μM pre-incubation
Experimental: as §1, §2
(§4) HCT116 cells (3×10^6) were treated for 24 hours with the compounds solubilized in DMSO. Compounds were added at 1 μM-10 μM each. Standardized protein samples were electrophoresed and imaged as described in the WES ProteinSimple section above. FIGS. 59, 60, and 61 depict the concentration-dependence of CURE-PRO-mediated BRD4 degradation using MDM2 ligands.
as §4, with “62” for “59, 60,”, “63” for “61”
as §3, with “HCT116” for “MCF7”, “ProteinSimple” for “Proteinsimple”, “FIG. 68” for “FIGS. 73 and 75”

Structure (SMILES): COc1ccc2c(c1)C(c1ccc(Cl)cc1)=N[C@@H](CC(=O)NCCOCCOCCNC(=O)c1cccc(B(O)O)c1)c1nnc(C)n1-2 [BRD-E46]
Loss of cellular viability / toxicity, cotreated with cereblon ligands 8046, 8047 and 8066 vs monomers alone [1]: reduced viability; also recorded: increased toxicity
Degradation of BRD4 in combination with CRBN ligand [drawing 372] ([2]; Table 1, CRBN ligand, third drawing (8066)): ✓ (A black check mark indicates efficacy of 30% to 70% or higher protein degradation)
Degradation of BRD4 in combination with CRBN ligand [drawing 370] ([2]; Table 1): ✓ (A black check mark indicates efficacy of 30% to 70% or higher protein degradation)
BRD4 degradation, co-treatment with CRBN ligand 8046 [3]: causes degradation of BRD4; also recorded: Degradation is noted
BRD4 degradation, co-treatment with CRBN ligand 8066 ([3]; 1:1 with 8066, 10 μM each (BRD-E10: 10 and 100 μM)): causes degradation of BRD4; also recorded: Degradation is noted

Structure (SMILES): COc1ccc2c(c1)C(c1ccc(Cl)cc1)=N[C@@H](CC(=O)NCCCCCNC(=O)c1cccc(O)c1O)c1nnc(C)n1-2 [BRD-N8, N-(5-(2-((4S)-6-(4-chlorophenyl)-8-methoxy-1-methyl-4H-benzo[f][1,2,4]triazolo[4,3-a][1,4]diazepin-4-yl)acetamido)pentyl)-2,3-dihydroxybenzamide]
Loss of cellular viability / toxicity, co-dosed with CRBN ligand 8049 ([1]; MV-4-11, 24 hours, 1:1 with 8049, 1 nM-100 μM each): concentration-dependent loss in cellular viability; also recorded: increased toxicity

Structure (SMILES): CCNC(=O)C[C@@H]1N=C(c2ccc(Cl)cc2)c2cc(Sc3cccc(B(O)O)c3)ccc2-n2c(C)nnc21 [BRD-E76]
Loss of cellular viability / toxicity, cotreated with cereblon ligands 8046, 8047 and 8066 vs monomers alone [1]: reduced viability; also recorded: increased toxicity
Degradation of BRD4 in combination with CRBN ligand [drawing 370] ([2]; Table 1): ✓ (A black check mark indicates efficacy of 30% to 70% or higher protein degradation)
BRD4 degradation, co-treatment with CRBN ligand 8046 [3]: causes degradation of BRD4
BRD4 degradation, co-treatment with CRBN ligand 8047 ([3]; 1:1 with 8047, 10 μM each): causes degradation of BRD4

Structure (SMILES): CCNC(=O)C[C@@H]1N=C(c2ccc(Cl)cc2)c2cc(Sc3ccc(B(O)O)cc3)ccc2-n2c(C)nnc21 [BRD-E75, (4-(((4S)-6-(4-chlorophenyl)-4-(2-(ethylamino)-2-oxoethyl)-1-methyl-4H-benzo[f][1,2,4]triazolo[4,3-a][1,4]diazepin-8-yl)thio)phenyl)boronic acid]
Loss of cellular viability / toxicity, cotreated with cereblon ligands 8046, 8047 and 8066 vs monomers alone [1]: reduced viability; also recorded: increased toxicity

Structure (SMILES): O=C1CCC(N2C(=O)c3cccc(CNC(=O)c4cccc(B(O)O)c4)c3C2=O)C(=O)N1 (stereo not shown) [compound 8049]
Loss of cellular viability, monomer alone ([1]; MV-4-11, 24 hours, 1 nM-100 μM): little loss of viability was observed

Inhibition of BRD-E2 + 8305 mediated BRD4 degradation by proteasome inhibitor [4]: inhibited by the pre-incubation
Inhibition of BRD-E20 + 8305 mediated BRD4 degradation by proteasome inhibitor [4]: inhibited by the pre-incubation
Inhibition of BRD-N25 + 8310 mediated BRD4 degradation by proteasome inhibitor [5]: inhibited by the pre-incubation
Structure (SMILES): CC(C)C[C@H](NC(=O)[C@H](CCc1ccccc1)NC(=O)CN1CCOCC1)C(=O)N[C@@H](Cc1ccccc1)C(=O)N[C@@H](CC(C)C)C(=O)[C@@]1(C)CO1 [Carfilzomib]

Structure (SMILES): CC(C)C[C@@H](C=O)NC(=O)[C@H](CC(C)C)NC(=O)[C@H](CC(C)C)NC(=O)OCc1ccccc1 [MG-132] (Cbz-Leu-Leu-Leu-aldehyde)
Inhibition of BRD-E2 + 8305 mediated BRD4 degradation by proteasome inhibitor [4]: inhibited by the pre-incubation
Inhibition of BRD-E20 + 8305 mediated BRD4 degradation by proteasome inhibitor [4]: inhibited by the pre-incubation
Inhibition of BRD-N25 + 8310 mediated BRD4 degradation by proteasome inhibitor [5]: inhibited by the pre-incubation

Structure (SMILES): CCNC(=O)C[C@@H]1N=C(c2ccc(Cl)cc2)c2cc(OCCCCCCCNC(=O)c3ccc(B(O)O)cc3)ccc2-n2c(C)nnc21 [BRD-E78]
Loss of cellular viability / toxicity, cotreated with cereblon ligands 8046, 8047 and 8066 vs monomers alone [1]: reduced viability; also recorded: increased toxicity
Degradation of BRD4 in combination with VHL ligand [drawing 397] ([2]; Table 3, aromatic 1,2-diol-containing VHL ligand, second drawing (8305)): ✓ (A black check mark indicates efficacy of 30% to 70% or higher protein degradation)

Structure (SMILES): COc1ccc2c(c1)C(c1ccc(Cl)cc1)=N[C@@H](CC(=O)Nc1cccc(B(O)O)c1)c1nnc(C)n1-2 [BRD-E73, (3-(2-((4S)-6-(4-chlorophenyl)-8-methoxy-1-methyl-4H-benzo[f][1,2,4]triazolo[4,3-a][1,4]diazepin-4-yl)acetamido)phenyl)boronic acid]
Loss of cellular viability / toxicity, cotreated with cereblon ligands 8046, 8047 and 8066 vs monomers alone [1]: reduced viability; also recorded: increased toxicity

BRD4 degradation, monomer alone (WES) ([4]; MCF7, 10 μM): no degradation of BRD4
Structure (SMILES): Cc1ncsc1-c1ccc(CNC(=O)[C@@H]2C[C@@H](O)CN2C(=O)[C@@H](NC(=O)c2cccc(O)c2O)C(C)(C)C)cc1 [compound 8305, (2S,4R)-1-((S)-2-(2,3-dihydroxybenzamido)-3,3-dimethylbutanoyl)-4-hydroxy-N-(4-(4-methylthiazol-5-yl)benzyl)pyrrolidine-2-carboxamide]
